Consider 1 compound from patent US20220153766A1, “CONDENSED TRICYCLIC COMPOUND USED AS KINASE INHIBITOR” (Hangzhou Innogate Pharma Co., Ltd., priority 2019, published 2022).

Assay [1] has as its target EGFR (T790M/L858R/C797S) (Homo sapiens, UniProt P00533, C797S/L858R/T790M). Nature of the assay: EGFR (T790M/L858R/C797S) kinase activity inhibition, Caliper mobility shift assay. The class given is biochemical. The settings on record: kinase 2.5 nM, ATP 40 μM.
Assay [2] addresses MAP4K1 (HPK1) (Homo sapiens, UniProt Q92918). Description: MAP4K1 (HPK1) kinase activity inhibition, Caliper mobility shift assay. Conditions: kinase 1.25 nM, ATP 10.1 μM. The class given is biochemical. An outline of the steps: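 HPK1 kinase at 1.25 nM final preincubated 10 min at room temperature with compound (5 points, 5-fold dilutions from 500 nM), then reacted 120 min with 10.1 μM ATP and 3 μM substrate peptide No. 25. EDTA stop; mobility-shift conversion read, IC50 from variable-slope four-parameter fit of % inhibition.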

Assay [3] addresses T1, Ba/F3_EGFR del19/T790M/C797S cells (Homo sapiens, UniProt P00533, T790M/C797S, cells depend on it, form not given). Nature of the assay: Ba/F3_EGFR (del19-T790M-C797S) cell proliferation inhibition, CTG, method 1. Type of assay: cell-based. The settings on record: 700 cells/well, 72 h, read-out: Ba/F3_EGFR (del19-T790M-C797S) cell proliferation inhibition (IC50 value) Method 1.

Assay [4] concerns the target T1, Ba/F3_EGFR del19/T790M/C797S cells. Nature of the assay: Ba/F3_EGFR (del19-T790M-C797S) cell proliferation inhibition, CTG, method 2. Type of assay: cell-based. The settings on record: 2000 cells/well, 72 h, read-out: Ba/F3_EGFR (del19-T790M-C797S) cell proliferation inhibition (IC50 value) Method 2. On the procedure:
Take a small amount of cells and count them with ViCell. 2) Adjust the cell density, inoculate the cells in a 384-well plate at 2000/well, and incubate in a 37° C., 5% CO2 incubator for 4 hours. 3) Set up the program of Tecan HP D300, add the compound to the well plate. The maximum initial concentration of the compound is 1-4 μM, 3 folds dilution, 9 concentrations, and the DMSO content in each well is unified to 0.2%.
CTG method detection: 1) Take out the CTG reagent and cell plate and equilibrate at room temperature for 30 min, add 25 μL CTG to each well, shake at medium speed for 2 min, centrifuge at 1000 rpm for 1 minutes, and stand still at room temperature for 10 minutes. 2) Envision instrument reads the chemiluminescence signal value.
Data analysis: IC50 results are analyzed by IDBS's XL-fit 5.0 software.

T1 sequence (P00533 with tags, fused parts or gaps DEL746-750/T790M/C797S, form open): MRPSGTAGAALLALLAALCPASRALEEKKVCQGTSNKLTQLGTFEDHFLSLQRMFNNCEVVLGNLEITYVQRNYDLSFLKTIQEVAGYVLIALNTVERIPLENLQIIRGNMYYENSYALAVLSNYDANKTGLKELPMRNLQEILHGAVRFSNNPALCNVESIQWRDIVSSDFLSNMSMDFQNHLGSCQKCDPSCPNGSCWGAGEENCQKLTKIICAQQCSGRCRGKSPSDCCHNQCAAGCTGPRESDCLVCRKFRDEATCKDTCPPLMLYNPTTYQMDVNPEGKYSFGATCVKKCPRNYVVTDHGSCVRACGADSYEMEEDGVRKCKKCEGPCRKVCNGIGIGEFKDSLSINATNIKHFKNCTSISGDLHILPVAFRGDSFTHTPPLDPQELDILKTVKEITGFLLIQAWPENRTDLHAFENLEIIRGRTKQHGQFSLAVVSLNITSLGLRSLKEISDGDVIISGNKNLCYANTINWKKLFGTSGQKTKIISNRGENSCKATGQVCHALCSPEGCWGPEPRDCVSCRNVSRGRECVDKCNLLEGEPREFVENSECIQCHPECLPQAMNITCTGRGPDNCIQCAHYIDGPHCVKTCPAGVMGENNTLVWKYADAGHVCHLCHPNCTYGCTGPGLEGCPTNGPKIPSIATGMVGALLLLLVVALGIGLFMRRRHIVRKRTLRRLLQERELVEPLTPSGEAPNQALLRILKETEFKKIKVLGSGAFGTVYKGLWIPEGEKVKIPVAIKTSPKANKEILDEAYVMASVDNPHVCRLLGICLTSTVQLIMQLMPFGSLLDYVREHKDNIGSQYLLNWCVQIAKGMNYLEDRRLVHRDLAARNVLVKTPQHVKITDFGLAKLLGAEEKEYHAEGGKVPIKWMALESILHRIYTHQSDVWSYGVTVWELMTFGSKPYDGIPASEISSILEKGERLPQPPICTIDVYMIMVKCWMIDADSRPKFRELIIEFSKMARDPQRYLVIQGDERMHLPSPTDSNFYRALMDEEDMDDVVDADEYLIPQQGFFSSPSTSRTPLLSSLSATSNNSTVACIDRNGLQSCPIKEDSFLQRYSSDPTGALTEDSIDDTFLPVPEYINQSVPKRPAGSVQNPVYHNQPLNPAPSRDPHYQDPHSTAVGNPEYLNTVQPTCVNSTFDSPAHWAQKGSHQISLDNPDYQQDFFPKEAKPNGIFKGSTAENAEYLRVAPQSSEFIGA
EGFR (T790M/L858R/C797S), sequence (P00533 25-1210 T790M/C797S/L858R): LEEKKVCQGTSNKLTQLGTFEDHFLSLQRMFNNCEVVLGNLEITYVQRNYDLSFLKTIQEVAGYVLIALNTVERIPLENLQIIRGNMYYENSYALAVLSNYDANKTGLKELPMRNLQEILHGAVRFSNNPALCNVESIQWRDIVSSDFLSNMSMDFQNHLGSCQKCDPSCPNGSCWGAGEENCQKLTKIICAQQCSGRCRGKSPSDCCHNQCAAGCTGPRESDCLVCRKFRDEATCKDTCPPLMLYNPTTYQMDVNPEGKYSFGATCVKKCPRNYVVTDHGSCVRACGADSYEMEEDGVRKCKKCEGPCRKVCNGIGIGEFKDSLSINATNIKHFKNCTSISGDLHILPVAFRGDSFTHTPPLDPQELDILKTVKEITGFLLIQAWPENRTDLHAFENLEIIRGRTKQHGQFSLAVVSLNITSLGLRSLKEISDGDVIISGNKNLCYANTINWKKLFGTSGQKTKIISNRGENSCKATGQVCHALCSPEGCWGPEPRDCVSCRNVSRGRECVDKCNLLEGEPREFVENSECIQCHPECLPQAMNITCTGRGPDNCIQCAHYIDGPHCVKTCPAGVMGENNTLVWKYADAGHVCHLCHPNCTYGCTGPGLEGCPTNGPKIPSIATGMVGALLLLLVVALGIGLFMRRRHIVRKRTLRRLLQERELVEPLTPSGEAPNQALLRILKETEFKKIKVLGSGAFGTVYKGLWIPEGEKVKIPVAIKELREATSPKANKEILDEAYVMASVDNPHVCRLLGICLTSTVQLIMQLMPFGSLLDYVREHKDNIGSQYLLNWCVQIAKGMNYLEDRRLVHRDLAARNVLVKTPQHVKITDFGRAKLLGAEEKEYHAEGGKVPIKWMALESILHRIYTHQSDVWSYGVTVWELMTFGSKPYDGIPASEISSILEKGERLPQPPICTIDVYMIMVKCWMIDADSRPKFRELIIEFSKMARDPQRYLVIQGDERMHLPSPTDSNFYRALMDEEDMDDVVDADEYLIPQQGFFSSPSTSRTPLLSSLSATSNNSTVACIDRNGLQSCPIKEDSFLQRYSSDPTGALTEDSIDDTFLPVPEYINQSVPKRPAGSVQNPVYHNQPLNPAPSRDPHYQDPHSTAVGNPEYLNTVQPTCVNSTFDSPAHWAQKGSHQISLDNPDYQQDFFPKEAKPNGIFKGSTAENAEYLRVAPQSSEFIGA
MAP4K1 (HPK1), sequence (Q92918 whole entry): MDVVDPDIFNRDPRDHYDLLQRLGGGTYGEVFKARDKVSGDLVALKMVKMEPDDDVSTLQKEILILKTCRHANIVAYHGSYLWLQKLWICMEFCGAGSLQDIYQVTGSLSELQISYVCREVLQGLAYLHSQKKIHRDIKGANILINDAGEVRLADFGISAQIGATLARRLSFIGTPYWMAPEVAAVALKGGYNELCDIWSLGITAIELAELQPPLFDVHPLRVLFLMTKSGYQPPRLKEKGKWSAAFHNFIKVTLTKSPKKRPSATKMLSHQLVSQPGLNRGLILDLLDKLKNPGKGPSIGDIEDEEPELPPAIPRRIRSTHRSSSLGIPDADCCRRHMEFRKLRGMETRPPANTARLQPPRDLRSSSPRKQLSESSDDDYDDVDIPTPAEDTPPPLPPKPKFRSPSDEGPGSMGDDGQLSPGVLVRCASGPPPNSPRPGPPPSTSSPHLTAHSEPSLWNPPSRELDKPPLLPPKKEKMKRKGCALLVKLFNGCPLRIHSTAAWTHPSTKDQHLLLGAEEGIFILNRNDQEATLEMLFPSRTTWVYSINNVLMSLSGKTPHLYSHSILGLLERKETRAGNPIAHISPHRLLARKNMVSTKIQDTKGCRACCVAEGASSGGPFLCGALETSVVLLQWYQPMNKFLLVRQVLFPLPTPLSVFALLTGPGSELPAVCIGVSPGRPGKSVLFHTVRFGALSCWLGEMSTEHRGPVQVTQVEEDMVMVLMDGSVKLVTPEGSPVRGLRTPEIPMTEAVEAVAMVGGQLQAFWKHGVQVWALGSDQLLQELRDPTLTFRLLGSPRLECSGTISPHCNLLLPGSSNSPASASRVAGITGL

The term IC50 denotes the midpoint of a concentration-inhibition curve. On to `Cc1cc(Nc2ncc(Cl)c(Nc3ccccc3P(C)(C)=O)n2)cc2c1N1CCN(C3CCN(C)CC3)C[C@@H]1CO2` [Compound 27R], for which the IC50 is less than 3 nM in assay [1] and not above 1 nM in assay [2]. Besides, the GI50 in assay [3] and in assay [4] was less than 20 nM each time.
